This note sets out measurements from patent US9238797B2, “Method for production of pluripotent stem cell” (TAKARA BIO INC., priority 2008, dated 2016).

For experiment [1], the system named is human adult skin fibroblast. Kind of experiment: iPS cell colony induction, methylation inhibitor treatment (Example 1). Conditions: 5-aza-2′-deoxycytidine 1 μM for 2 days in medium for ES cells, 28th day of culture.
Description: Each 700 μL of the virus solution prepared in Preparation Example 2 was added to each well of the Retronectin-immobilized culture plate prepared in (1) in a combination of Table 3, respectively, and this was centrifuged at 32° C. and 2,000×g for 2 hours.
Thereafter, the supernatant was removed from each well, washed with PBS once, and each 2 mL of human adult skin fibroblast (manufactured by Lonza) suspended in 10F-DMEM to 5×10^4 cells/mL was seeded on each well. After centrifugation at 32° C. and 500×g for 10 minutes, culturing was initiated in a CO2 incubator at 37° C. (0 day of culture).
Gene transfer for the second time was carried out on the first day of culture. Each 700 μL of virus solutions prepared by Preparation Example 2 were mixed in a combination of Table 3, and polybrene (hexadimethrine.bromide; manufactured by Aldrich) was added to a final concentration of 8 μg/mL to prepare a retrovirus vector mixed solution. The supernatant was removed from a culture plate which had been cultured in (2), and this retrovirus vector mixed solution was added. After culturing in a CO2 incubator at 37° C. for 4 hours, 2 mL of 10F-DMEM was added. After further culturing for 2 days, the supernatant was removed, 2 mL of 10F-DMEM was added, and culturing was continued.
The gene-introduced cell on the seventh day of culture made in (3) was recovered, and suspended in 10F-DMEM to 5×10^4 cells/mL. 10 mL of this suspension was seeded on the feeder cell, and culturing was continued.
On the eighth day of culture (after culturing for 1 day from seeding on the feeder cell), the supernatant was removed, and 10 mL of DMEM not containing serum (0F-DMEM: obtained by removing bovine fetal serum from 10F-DMEM) was added under Protein starvation treatment conditions. […]
The number of a pluripotent stem cell (iPS cell) under each condition of protein starvation of treatment or methylation inhibitor treatment under each of conditions A, B and C was counted on the 28th day of culture.
Experiment [2] relates to human adult skin fibroblast. Briefly: iPS cell colony induction, cell cycle arresting agent treatment (Example 3). The format is cell-based. Conditions: 2 days, 22nd day of culture. On the procedure: According to the same manner as that of Example 1-(2), gene transfer was carried out (day 0 of culturing), provided that a plate was washed with PBS containing 1.5% human serum albumin, and centrifugation after cell seeding was not carried out. In addition, gene transfer was carried out in a combination of a retrovirus vector DON5-am-OCT4-IR-SOX2, DON5-am-LIN28-IR-NANOG, or DON5-am-KLF4.
On the seventh day of culture, according to the same manner as that of Example 1-(4), the gene-introduced cell was seeded on a feeder cell, and culturing was continued.
In addition, the agent was not added to a control. After culturing for 2 days, the medium was exchanged with a medium for ES cells, and culturing was continued until the 22nd day of culture.

The subject of experiment [3] is human adult skin fibroblast. Briefly: iPS cell colony induction, cell cycle arresting agent-2, Purvalanol A with or without Y27632 (Example 27). Format: cell-based. The note with it: 26th day of culture, N=2. On the procedure:
Regarding Purvalanol A being a Cell cycle arresting agent, for which the effect of promoting induction of a pluripotent stem cell was confirmed in Example 3, extension of the substance treatment term thereof and a combination use thereof with Y-27632 [(R) (+)-trans-4-(1-aminoethyl)-N-(4-pyridyl)cyclohexanecarboxyamide dihydrochloride] which is one of substances suppressing cell death were studied.
According to the same manner as that of Example 3-(2), gene transfer was carried out (day 0 of culturing), provided that the virus solution was added to each well by each 2 mL, by diluting 10-fold a solution obtained by mixing three kinds of vectors at an equal amount, with 10F-DMEM.
(§1) On the sixth day of culture, according to the same manner as that of Example 5-(4), the gene-introduced cell was seeded on a feeder cell, and culturing was continued.
After completion of a substance treatment term, the medium was exchanged with a medium for ES cells, and culturing was continued until the 26th day of culture. […] Regarding the condition under which substance treatment for 4 days to 6 days was carried out, the medium was exchanged at two days interval also during a substance treatment term, and the substance was added at the same concentration every time.
(§2) In addition, the number in the Table indicates an average value of N=2.

In experiment [4] the test system is human adult skin fibroblast. Kind of experiment: iPS cell colony induction, DHCP and GM (Example 29). The format is cell-based. Conditions: 10 μM, 2 days; 26th day of culture; N=2. On the procedure: In induction culturing of a pluripotent stem cell, substance treatment with a compound DHCP produced by heating a uronic acid compound derived from an animal and a plant (International Publication No. 98/13328 pamphlet), and GM in which glutathione is added to DHCP (International Publication No. 98/39291 pamphlet) was carried out, and influence on an induction efficiency was studied.
According to the same manner as that of Example 4-(2), gene transfer was carried out (day 0 of culturing), provided that each 1 mL of the virus solution was added to each well, by diluting 10-fold a solution obtained by three kinds of vectors at an equal amount, with 10F-DMEM.
as §1
(§3) In addition, in a control, the substance was not added. After culturing for 2 days, the medium was exchanged with a medium for ES cells, and culturing was continued to the 28th day of culture.
as §2

The test system of experiment [5] is human adult skin fibroblast. Briefly: iPS cell colony induction, cell cycle arresting agent-3, NU6140 (Example 28). The format is cell-based. The note with it: 2 days, 28th day of culture, N=2. On the procedure: In induction culturing of a pluripotent stem cell, substance treatment with […] (manufactured by ALEXIS BIOCHEMICALS) which is one of Cell cycle arresting agents was carried out, and influence on an induction efficiency was studied.
According to the same manner as that of Example 1-(1), immobilization of Retronectin on a culture plate was carried out, provided that a non-treatment 12-well culture plate (manufactured by Becton, Dickinson and Company) was used, and each 1 mL of a Retronectin solution was added to each well.
According to the same manner as that of Example 4-(2), gene transfer was carried out (day 0 of culturing), provided that each 1 mL of the virus solution was added to each well, by diluting 100-fold a solution obtained by three kinds of vectors at an equal amount, with 10F-DMEM.
as §1, §3, §2

Turning to `Nc1ncn([C@H]2C[C@H](O)[C@@H](CO)O2)c(=O)n1` [Methylation inhibitor, 5-aza-2′-deoxycytidine], the “Number of iPS cell colonies” value is on record as 11 in experiment [1] (retrovirus combination Condition A), 25 in experiment [1] (retrovirus combination Condition B) and 8 in experiment [1] (retrovirus combination Condition C).

In the case of `CC(C)[C@H](CO)Nc1nc(Nc2cccc(Cl)c2)c2ncn(C(C)C)c2n1` [Purvalanol A], the “Number of iPS cell colonies” value is recorded as 28 in experiment [2] (0.1 μM); 19 in experiment [2] (0.5 μM); 19 in experiment [2] (2 μM); 26.0 in experiment [3] (Condition A: 2 μM Purvalanol A, 2 days); 25.5 in experiment [3] (Condition B: 2 μM Purvalanol A, 4 days); 18.5 in experiment [3] (Condition C: 2 μM Purvalanol A, 6 days).

For the compound `NC(=O)NO` [Hydroxyurea, hydroxyurea], the “Number of iPS cell colonies” value is 26 in experiment [2] (10 μM) and 13 in experiment [2] (100 μM).

In the case of `O=C1C=CC(O)C1O` (centres unmarked) [DHCP, 4,5-dihydroxy-2-cyclopentene-1-one], the “Number of iPS cell colonies” value in experiment [4] is 23.5.

Take `CCN(CC)C(=O)c1ccc(Nc2nc(OCC3CCCCC3)c3[nH]cnc3n2)cc1` [NU6140]: the “Number of iPS cell colonies” value in experiment [5] (0.1 μM) is 22.5; in experiment [5] (1 μM), 28.0.
